Here are results for 21 molecules from article PMC11440591 (Journal of Medicinal Chemistry, 2024).

Like-named read-outs stand apart in the source and are kept apart here. Where only a bound is given, the exact number is not on record here.

The test system of data set [1] is EBOV-GP-pseudotyped virus (pEBOV).
Data set [2] relates to wild-type Zaire EBOV Mayinga 1976 strain (EBOV May). The data set can be described thus: microbe, parasite or virus in culture. As to conditions: Zaire ebolavirus, Vero C1008, 72 h, read-out: EC50 (EBOV May).
A short description of the next data set: in vitro. As to conditions: chlorocebus sabaeus.
In data set [3] the test system is VSV-G-pseudotype virus (pVSV-G). Briefly: microbe, parasite or virus in culture. Type of data set: cell-based. As to conditions: Vesicular stomatitis virus, read-out: %inh@10µM (pVSV-G).
The subject of data set [4] is wild-type Zaire EBOV Mayinga 1976 strain (EBOV May).
Data set [5] relates to EBOV-GP-pseudotyped virus (pEBOV). The data set can be described thus: microbe, parasite or virus in culture. The note with it: Vesicular stomatitis virus, Vero C1008, 24 h, read-out: EC50 (pEBOV).
A further data set deals with EBOV like particles. The note with it: cited from earlier work.
For data set [6] the following is noted: male, BALB/c, mouse, in vivo.
For data set [7], the system named is pseudotypes with the SUDV envelope (pSUDV). The data set can be described thus: microbe, parasite or virus in culture. As to conditions: Sudan ebolavirus, read-out: EC50 (pSUDV). It is filed as cell-based.
Another data set has as its target hERG potassium channel (Homo sapiens, UniProt Q12809). Briefly: in vitro.
The next data set deals with Nav1.5 (Homo sapiens, UniProt Q14524). The data set can be described thus: in vitro.
Chain of Nav1.5 (Q14524 whole entry): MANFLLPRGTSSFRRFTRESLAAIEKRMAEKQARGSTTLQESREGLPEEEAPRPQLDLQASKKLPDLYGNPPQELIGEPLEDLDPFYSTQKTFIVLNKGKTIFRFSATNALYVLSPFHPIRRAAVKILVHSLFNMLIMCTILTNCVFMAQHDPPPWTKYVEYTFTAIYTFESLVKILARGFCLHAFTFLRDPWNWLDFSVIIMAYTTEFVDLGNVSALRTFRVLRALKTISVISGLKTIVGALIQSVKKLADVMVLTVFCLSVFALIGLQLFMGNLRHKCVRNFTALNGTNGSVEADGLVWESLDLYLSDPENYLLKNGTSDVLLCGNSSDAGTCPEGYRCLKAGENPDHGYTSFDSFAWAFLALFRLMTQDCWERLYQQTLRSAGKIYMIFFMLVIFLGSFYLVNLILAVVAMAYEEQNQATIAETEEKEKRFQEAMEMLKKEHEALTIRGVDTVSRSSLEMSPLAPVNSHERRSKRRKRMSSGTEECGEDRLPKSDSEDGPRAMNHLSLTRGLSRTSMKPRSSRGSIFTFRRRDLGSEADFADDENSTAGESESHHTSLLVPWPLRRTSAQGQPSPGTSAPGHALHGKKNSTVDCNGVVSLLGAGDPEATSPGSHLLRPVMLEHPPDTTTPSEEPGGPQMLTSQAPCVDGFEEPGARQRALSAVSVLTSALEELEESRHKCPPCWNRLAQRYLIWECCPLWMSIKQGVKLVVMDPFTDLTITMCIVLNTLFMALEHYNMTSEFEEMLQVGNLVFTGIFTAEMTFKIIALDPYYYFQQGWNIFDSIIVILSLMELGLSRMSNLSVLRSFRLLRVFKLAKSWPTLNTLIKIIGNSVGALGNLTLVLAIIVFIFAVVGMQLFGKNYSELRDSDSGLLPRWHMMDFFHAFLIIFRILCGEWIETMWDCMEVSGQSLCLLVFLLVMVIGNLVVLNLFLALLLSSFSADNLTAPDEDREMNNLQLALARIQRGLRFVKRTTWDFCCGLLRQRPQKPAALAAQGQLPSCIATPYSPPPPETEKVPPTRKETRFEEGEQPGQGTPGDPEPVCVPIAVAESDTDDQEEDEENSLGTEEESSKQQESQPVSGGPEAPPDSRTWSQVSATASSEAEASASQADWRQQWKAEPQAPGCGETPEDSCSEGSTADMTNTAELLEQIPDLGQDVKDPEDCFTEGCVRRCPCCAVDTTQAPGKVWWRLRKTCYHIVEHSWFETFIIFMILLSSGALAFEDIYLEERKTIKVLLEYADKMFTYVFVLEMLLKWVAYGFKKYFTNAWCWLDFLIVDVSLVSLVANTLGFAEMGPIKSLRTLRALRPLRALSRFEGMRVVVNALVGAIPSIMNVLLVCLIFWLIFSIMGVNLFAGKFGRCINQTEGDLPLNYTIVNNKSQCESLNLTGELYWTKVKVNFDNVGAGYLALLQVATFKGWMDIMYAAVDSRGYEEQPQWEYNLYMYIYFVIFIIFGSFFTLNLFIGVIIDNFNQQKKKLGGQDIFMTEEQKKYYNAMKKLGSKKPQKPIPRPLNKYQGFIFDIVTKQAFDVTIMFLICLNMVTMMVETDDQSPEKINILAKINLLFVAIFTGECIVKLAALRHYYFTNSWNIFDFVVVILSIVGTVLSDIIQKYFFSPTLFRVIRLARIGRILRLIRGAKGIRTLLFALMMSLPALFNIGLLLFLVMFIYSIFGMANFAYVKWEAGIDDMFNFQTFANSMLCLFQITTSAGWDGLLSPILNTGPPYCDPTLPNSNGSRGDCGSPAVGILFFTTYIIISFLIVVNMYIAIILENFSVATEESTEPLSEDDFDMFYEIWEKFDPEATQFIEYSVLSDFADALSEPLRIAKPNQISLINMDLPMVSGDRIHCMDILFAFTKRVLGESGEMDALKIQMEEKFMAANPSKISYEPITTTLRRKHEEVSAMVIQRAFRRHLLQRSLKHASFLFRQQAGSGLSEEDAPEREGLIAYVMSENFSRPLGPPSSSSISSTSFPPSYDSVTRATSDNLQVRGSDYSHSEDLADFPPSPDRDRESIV
For data set [8], the target named is EBOV-GPcl/NPC1-domain C interaction (Zaire ebolavirus, UniProt Q05320). It is filed as binding, EBOV; Homo sapiens.
Chain of EBOV-GPcl/NPC1-domain C interaction (Q05320 33-190 limits assumed): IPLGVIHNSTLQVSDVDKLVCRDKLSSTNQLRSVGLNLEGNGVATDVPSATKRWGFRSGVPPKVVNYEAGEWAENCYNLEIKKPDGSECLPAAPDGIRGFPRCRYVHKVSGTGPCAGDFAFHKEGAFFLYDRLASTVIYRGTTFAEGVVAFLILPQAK
Chain of EBOV-GPcl/NPC1-domain C interaction (Q05320 502-676 limits assumed): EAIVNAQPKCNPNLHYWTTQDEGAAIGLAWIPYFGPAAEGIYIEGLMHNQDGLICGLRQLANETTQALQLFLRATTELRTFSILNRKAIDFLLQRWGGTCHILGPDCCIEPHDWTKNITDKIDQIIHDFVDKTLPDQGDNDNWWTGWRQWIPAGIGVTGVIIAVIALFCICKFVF
Another data set in a line: in vivo. As to conditions: male, BALB/c, mouse.
Another data set deals with EBOV. As to conditions: cited from earlier work.
The next data set relates to VeroE6 cells. The note with it: cited from earlier work.

Chain of hERG potassium channel (Q12809 whole entry): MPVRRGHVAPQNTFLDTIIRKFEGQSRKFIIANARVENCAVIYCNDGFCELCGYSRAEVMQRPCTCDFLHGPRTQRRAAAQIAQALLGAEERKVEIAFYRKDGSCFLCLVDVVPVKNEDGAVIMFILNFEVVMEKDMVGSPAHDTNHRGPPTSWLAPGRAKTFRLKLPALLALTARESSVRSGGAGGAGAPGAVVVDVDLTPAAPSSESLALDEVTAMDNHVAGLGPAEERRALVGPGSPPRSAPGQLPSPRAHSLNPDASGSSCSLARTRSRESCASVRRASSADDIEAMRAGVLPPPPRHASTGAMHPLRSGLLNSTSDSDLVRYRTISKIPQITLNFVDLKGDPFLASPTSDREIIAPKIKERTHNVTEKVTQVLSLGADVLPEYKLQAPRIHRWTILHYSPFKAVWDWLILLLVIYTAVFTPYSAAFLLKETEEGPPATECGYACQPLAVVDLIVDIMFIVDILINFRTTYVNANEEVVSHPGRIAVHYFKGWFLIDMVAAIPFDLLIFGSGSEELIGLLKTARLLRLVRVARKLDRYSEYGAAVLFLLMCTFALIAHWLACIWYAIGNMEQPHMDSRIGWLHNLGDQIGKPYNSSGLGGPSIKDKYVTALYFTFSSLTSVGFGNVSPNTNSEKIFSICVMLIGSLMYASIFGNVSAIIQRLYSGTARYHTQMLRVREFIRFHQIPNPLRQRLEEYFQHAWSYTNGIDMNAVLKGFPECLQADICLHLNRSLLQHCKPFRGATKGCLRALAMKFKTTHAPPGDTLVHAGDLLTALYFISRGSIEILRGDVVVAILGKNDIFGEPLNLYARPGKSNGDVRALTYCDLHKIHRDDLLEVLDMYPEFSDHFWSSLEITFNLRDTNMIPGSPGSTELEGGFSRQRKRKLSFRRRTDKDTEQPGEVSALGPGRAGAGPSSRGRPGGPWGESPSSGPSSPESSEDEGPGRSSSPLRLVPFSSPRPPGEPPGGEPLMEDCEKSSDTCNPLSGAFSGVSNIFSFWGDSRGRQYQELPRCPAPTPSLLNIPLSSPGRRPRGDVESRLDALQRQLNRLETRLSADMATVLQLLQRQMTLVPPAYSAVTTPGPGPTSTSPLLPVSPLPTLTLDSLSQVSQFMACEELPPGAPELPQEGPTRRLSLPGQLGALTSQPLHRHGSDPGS

`O=C(Nc1ccc(Cl)cc1)c1ccc(-c2ccccc2OC2CCNCC2)s1` [compound 47, N-(4-Chlorophenyl)-5-(2-(piperidin-4-yloxy)phenyl)thiophene-2-carboxamide]: the figures for the “SI (CC50/EC50)” value in data set [1] and in data set [4] were 3.32 and 18, respectively. Besides, the concentration giving a half-maximal response (EC50) in data set [2] came out at 1.55 µM; in data set [5], 8.4 µM. In “in vitro”, this molecule yielded a CC50 at 24 h of 27.9 µM. For the same molecule, the inhibition at 10 µM in [3] was -117%.

`CN(C)CCCN1c2ccccc2CCc2ccccc21` [Imipramine, imipramine]: in the data set on EBOV like particles, the IC50 is 13.2 µM.

For the molecule `O=C(NCCC1CCN(Cc2ccccc2)CC1)c1cnc(-c2ccc(OC3CCNCC3)cc2)s1` [compound 79, N-(2-(1-Benzylpiperidin-4-yl)ethyl)-2-(4-(piperidin-4-yloxy)phenyl)thiazole-5-carboxamide], the “SI (CC50/EC50)” value in data set [1] is 12; in data set [4], 12.8. Further, the EC50 in [2] turned out to be 7.83 µM; in [5], 8.3 µM. Also, in the data set “in vitro”, the CC50 is greater than 100 µM. Also, in data set [3], the inhibition at 10 µM was 39%.

As for `O=C(Nc1ccc(Cl)cc1)c1ccc(-c2cccc(OC3CCNCC3)c2)s1` [compound 54, N-(4-Chlorophenyl)-5-(3-(piperidin-4-yloxy)phenyl)thiophene-2-carboxamide], the “SI (CC50/EC50)” value in data set [1] was 2.8; in [4], 8.9. Further, the figures for the EC50 in data set [2] and in data set [5] were 1.12 µM and 3.53 µM, respectively. In the data set “in vitro”, this molecule yielded a CC50 at 24 h of 10 µM. For the same molecule, the inhibition at 10 µM in data set [3] was 30%.

On to `O=C(Nc1ccccc1)c1ccc(-c2ccccc2OC2CCNCC2)s1` [compound 1, N-Phenyl-5-(2-(piperidin-4-yloxy)phenyl)thiophene-2-carboxamide], for which the brain concentration in [6] (ip, 10 mg/kg) stood at 330 nM; in data set [6] (po, 50 mg/kg), 810 nM. The estimated plasma concentration is 0.32 µM in data set [6] (ip, 10 mg/kg) and 0.29 µM in data set [6] (po, 50 mg/kg). The EC50 in data set [2] was determined as 1.5 µM; in data set [7], 2.64 µM; in data set [5], 5.91 µM. Also, the values for the IC50 at hERG potassium channel and against Nav1.5 were 10.6 µM and 20.4 µM, respectively. In the data set “in vitro”, this molecule came in with a CC50 at 24 h of 34 µM. The “inhibitory effect on EBOV-GPcl/NPC1-domain C interaction (in words)” value in data set [8] was “comparable effect than the control imipramine”. Moreover, the inhibition at 10 µM in data set [3] was 0.66%. Further, the half-life at 24 h in the data set “in vivo” (ip, 10 mg/kg) is 1.96 h; in the data set “in vivo” (po, 50 mg/kg), 5.6 h. Also, the concentration in “in vivo” (ip, 10 mg/kg, Cmax) peaked (Cmax at 24 h) at 122 ng/mL.

Consider `O=C(NCCC1CCN(Cc2ccccc2)CC1)c1ccc(-c2ccccc2OC2CCNCC2)o1` [compound 101, N-(2-(1-Benzylpiperidin-4-yl)ethyl)-5-(2-(piperidin-4-yloxy)phenyl)furan-2-carboxamide], for which the “SI (CC50/EC50)” value stood at 18.7 in [1] and 9.5 in data set [4]. In addition, the concentration giving a half-maximal response (EC50) was 9.5 µM in data set [2] and 4.81 µM in data set [5]. The molecule further gave a CC50 at 24 h in the data set “in vitro” of 90 µM. The inhibition at 10 µM in data set [3] turned out to be 39%.

In the case of `O=C(NCCc1ccccc1)c1ccc(-c2cccc(OC3CCNCC3)c2)s1` [compound 56, N-Phenethyl-5-(3-(piperidin-4-yloxy)phenyl)thiophene-2-carboxamide], the entries for the “SI (CC50/EC50)” value in [1] and in data set [4] were 1.98 and 2.0, respectively. Further, the figures for the EC50 in data set [2] and in data set [5] were 4.93 µM and 5.03 µM, respectively. In addition, the CC50 at 24 h in “in vitro” came out at 10 µM. Further, the inhibition at 10 µM in data set [3] was -182%.

For the molecule `O=C(Nc1ccccc1)c1ccc(-c2cccc(OC3CCNCC3)c2)o1` [compound 103, N-Phenyl-5-(3-(piperidin-4-yloxy)phenyl)furan-2-carboxamide], the “SI (CC50/EC50)” value in data set [1] was 1.7; in data set [4], 1.5. Also, the figures for the half-maximal effective concentration (EC50) in data set [2] and in data set [5] were 9.26 µM and 8.27 µM, respectively. In “in vitro”, the CC50 at 24 h was 14.1 µM. Further, in data set [3], the inhibition at 10 µM is -18%.

As for `COC(=O)c1ccc(COc2ccccc2CN2CCN(C(=O)CNC(=O)CC34CC5CC(CC(C5)C3)C4)CC2)cc1` [3.47], the half-maximal effective concentration (EC50) in the data set with EBOV was 0.16 µM.

As for `O=C(Nc1ccc(N2CCOCC2)cc1)c1ccc(-c2ccccc2OC2CCNCC2)s1` [compound 50, N-(4-Morpholinophenyl)-5-(2-(piperidin-4-yloxy)phenyl)thiophene-2-carboxamide], the “SI (CC50/EC50)” value amounted to 2.26 in [1] and 2.8 in [4]. For the same molecule, the half-maximal effective concentration (EC50) worked out at 7.74 µM in data set [2] and 9.7 µM in data set [5]. For the same molecule, in the data set “in vitro”, the CC50 at 24 h came to 22 µM. For the same molecule, the inhibition at 10 µM in [3] was -31%.

Turning to `O=C(Nc1ccccc1)c1ccc(-c2cccc(OC3CCNCC3)c2)s1` [compound 53, N-Phenyl-5-(3-(piperidin-4-yloxy)phenyl)thiophene-2-carboxamide], the EC50 in [2] was determined as 0.3 µM; in data set [7], 3.05 µM; in [5], 7.19 µM. The molecule further registered a CC50 at 24 h in the data set “in vitro” of 33.9 µM. The inhibition at 10 µM in data set [3] was 7%.

As to `O=C(Nc1ccc(Cl)cc1)c1ccc(-c2ccc(OC3CCNCC3)cc2)s1` [compound 58, N-(4-Chlorophenyl)-5-(4-(piperidin-4-yloxy)phenyl)thiophene-2-carboxamide], the “SI (CC50/EC50)” value is 1.39 in data set [1] and 4.13 in [4]. Further, the concentration for a half-maximal effect (EC50) in data set [2] came out at 2.42 µM; in [5], 7.18 µM. Also, the CC50 at 24 h in “in vitro” was 10 µM. For the same molecule, the inhibition at 10 µM in data set [3] was -12%.

Turning to `NC(=O)c1nc(F)cnc1O` [Favipiravir, favipiravir], the CC50 in the data set with VeroE6 cells is greater than 1000 µM. For the same molecule, the IC50 in the data set with EBOV is 67 µM.

Consider `O=C(Nc1cccc(Cl)c1)c1ccc(-c2ccccc2OC2CCNCC2)s1` [compound 48, N-(3-Chlorophenyl)-5-(2-(piperidin-4-yloxy)phenyl)thiophene-2-carboxamide], for which the figures for the “SI (CC50/EC50)” value in [1] and in data set [4] were 4.8 and 17.1, respectively. Besides, the concentration giving a half-maximal response (EC50) was found to be 1.3 µM in [2] and 4.65 µM in data set [5]. In the data set “in vitro”, this molecule displayed a CC50 at 24 h of 22.3 µM.

`O=C(NCCc1ccccc1)c1cnc(-c2ccccc2OC2CCNCC2)s1` [compound 97, N-Phenethyl-2-(2-(piperidin-4-yloxy)phenyl)thiazole-5-carboxamide]: the results for the “SI (CC50/EC50)” value in data set [1] and in data set [4] were 14.5 and 5.8, respectively. Besides, the 50% effective concentration (EC50) in data set [2] came out at 15.7 µM; in [5], 6.27 µM. The CC50 at 24 h in the data set “in vitro” was 91 µM. In [3], the inhibition at 10 µM is 18%.

For the molecule `O=C(NCCc1ccccc1)c1ccc(-c2ccccc2OC2CCNCC2)o1` [compound 102, N-Phenethyl-5-(2-(piperidin-4-yloxy)phenyl)furan-2-carboxamide], the “SI (CC50/EC50)” value in data set [1] amounted to 12.77; in [4], 4.5. Also, the EC50 in [2] amounted to 6.19 µM; in data set [5], 2.16 µM. This molecule had a CC50 at 24 h in “in vitro” of 27.6 µM. For the same molecule, the inhibition at 10 µM in [3] was -23%.

For the molecule `CN(C)CCOc1ccc(/C(=C(/CCCl)c2ccccc2)c2ccccc2)cc1` [Toremifene, toremifene], the CC50 in the data set on VeroE6 cells is 16 µM.

With `O=C(Nc1ccc(Cl)cc1)c1ccc(-c2ccccc2OC2CCNCC2)o1` [compound 99, N-(4-Chlorophenyl)-5-(2-(piperidin-4-yloxy)phenyl)furan-2-carboxamide], the “SI (CC50/EC50)” value is recorded as 3.1 in data set [1] and 7.9 in [4]. For the same molecule, the values for the EC50 in data set [2] and in data set [5] were 2.53 µM and 6.35 µM, respectively. Further, the CC50 at 24 h in “in vitro” stood at 20 µM. For the same molecule, the inhibition at 10 µM in [3] is 10%.

As for `O=C(NCCc1ccccc1)c1ccc(-c2ccccc2OC2CCNCC2)s1` [compound 49, N-Phenethyl-5-(2-(piperidin-4-yloxy)phenyl)thiophene-2-carboxamide], the “SI (CC50/EC50)” value was 5.6 in data set [1] and 36.9 in data set [4]. Further, the EC50 in data set [2] amounted to 0.79 µM; in [5], 5.2 µM. In “in vitro”, this molecule showed a CC50 at 24 h of 29.2 µM. For the same molecule, the inhibition at 10 µM in data set [3] is -160%.

With `O=C(NCCC1CCN(Cc2ccccc2)CC1)c1ccc(-c2ccccc2OC2CCNCC2)s1` [compound 51, N-(2-(1-Benzylpiperidin-4-yl)ethyl)-5-(2-(piperidin-4-yloxy)phenyl)thiophene-2-carboxamide], the “SI (CC50/EC50)” value in [1] is on record as 2; in data set [4], 6.6. Besides, the EC50 in [2] was 2.96 µM; in [5], 9.3 µM. The molecule further displayed a CC50 at 24 h in “in vitro” of 19.5 µM. The inhibition at 10 µM in data set [3] is -148%.

Take `O=C(Nc1cccc(Cl)c1)c1ccc(-c2ccc(OC3CCNCC3)cc2)s1` [compound 59, N-(3-Chlorophenyl)-5-(4-(piperidin-4-yloxy)phenyl)thiophene-2-carboxamide]: the “SI (CC50/EC50)” value in data set [1] was 3.8; in data set [4], 21.8. Besides, the concentration for a half-maximal effect (EC50) in [2] came to 1.19 µM; in data set [5], 7.91 µM. The CC50 at 24 h in the data set “in vitro” was 26 µM. The inhibition at 10 µM in [3] was 5%.
